Key:
RARα = target: T1, RARα (Homo sapiens, UniProt P10276); experiment: RAR binding, RARα; details: Kd from IC50 by Cheng-Prussof equation
T1 sequence (P10276 1-462): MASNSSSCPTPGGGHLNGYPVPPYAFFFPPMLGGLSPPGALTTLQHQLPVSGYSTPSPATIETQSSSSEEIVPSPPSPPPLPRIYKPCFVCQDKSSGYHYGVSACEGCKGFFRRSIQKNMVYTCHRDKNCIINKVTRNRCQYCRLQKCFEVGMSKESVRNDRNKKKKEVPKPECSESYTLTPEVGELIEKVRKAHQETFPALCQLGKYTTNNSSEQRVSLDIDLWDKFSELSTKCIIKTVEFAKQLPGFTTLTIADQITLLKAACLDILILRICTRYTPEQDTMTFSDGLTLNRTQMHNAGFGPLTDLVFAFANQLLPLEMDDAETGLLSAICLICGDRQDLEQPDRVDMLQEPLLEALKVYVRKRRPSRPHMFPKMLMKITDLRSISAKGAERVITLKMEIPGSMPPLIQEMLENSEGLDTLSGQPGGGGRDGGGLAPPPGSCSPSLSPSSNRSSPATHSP
Method: (§1) Non-specific binding was defined as that binding remaining in the presence of 500 nM of the appropriate unlabelled compound. At the end of the incubation period, bound from free ligand were separated. The amount of bound tritiated retinoids was determined by liquid scintillation counting of an aliquot (700 μL) of the supernatant fluid or the hydroxylapatite pellet.
(§2) After correcting for non-specific binding, IC50 values were determined. […] The IC50 value was determined graphically from a log-logit plot of the data. The Kd values were determined by application of the Cheng-Prussof equation to the IC50 values, the labeled ligand concentration and the Kd of the labeled ligand.

RARβ = target: T2, RARβ (Homo sapiens, UniProt P10826); experiment: RAR binding, RARβ; details: Kd from IC50 by Cheng-Prussof equation
T2 sequence (P10826 1-448 isoform P10826-2): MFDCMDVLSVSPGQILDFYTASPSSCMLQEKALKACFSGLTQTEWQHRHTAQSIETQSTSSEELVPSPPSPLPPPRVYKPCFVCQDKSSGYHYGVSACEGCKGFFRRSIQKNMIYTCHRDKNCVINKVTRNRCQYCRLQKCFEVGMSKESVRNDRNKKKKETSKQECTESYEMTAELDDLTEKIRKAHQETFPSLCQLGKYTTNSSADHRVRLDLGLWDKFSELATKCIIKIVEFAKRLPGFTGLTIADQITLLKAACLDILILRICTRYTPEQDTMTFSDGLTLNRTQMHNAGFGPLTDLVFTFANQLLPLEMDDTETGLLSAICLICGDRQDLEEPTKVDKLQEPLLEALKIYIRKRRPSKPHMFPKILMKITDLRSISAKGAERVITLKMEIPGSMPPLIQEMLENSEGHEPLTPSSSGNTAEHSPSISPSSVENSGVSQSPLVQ
Method: as §1, §2

RARγ = target: T3, RARγ (Homo sapiens, UniProt P13631); experiment: RAR binding, RARγ; details: Kd from IC50 by Cheng-Prussof equation
T3 sequence (P13631 1-454): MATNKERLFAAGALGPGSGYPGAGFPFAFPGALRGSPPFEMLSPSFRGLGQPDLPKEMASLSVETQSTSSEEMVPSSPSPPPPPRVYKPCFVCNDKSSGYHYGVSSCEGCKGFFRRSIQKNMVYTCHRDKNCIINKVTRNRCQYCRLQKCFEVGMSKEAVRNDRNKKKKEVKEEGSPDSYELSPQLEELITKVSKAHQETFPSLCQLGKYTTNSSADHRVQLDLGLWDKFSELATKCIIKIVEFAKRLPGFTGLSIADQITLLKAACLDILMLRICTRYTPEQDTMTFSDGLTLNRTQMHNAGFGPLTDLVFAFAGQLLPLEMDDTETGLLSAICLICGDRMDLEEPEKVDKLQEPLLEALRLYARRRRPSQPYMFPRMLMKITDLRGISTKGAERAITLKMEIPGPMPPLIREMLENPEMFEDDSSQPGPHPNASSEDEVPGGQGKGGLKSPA
Method: as §1, §2

RARs = experiment: co-transfection assay, activity on RARs (overall statement); type: cell-based, human; details: comparison compound
Method: Utilizing the "cis-trans" or "co-transfection" assay described by Evans et al., Science, 240:889-95 (May 13, 1988), the disclosure of which is herein incorporated by reference, the RAR antagonist compounds of the present invention were tested and found to have strong, specific activity as antagonists of RARs in the presence of RAR agonists. This assay is described in further detail in U.S. Pat. Nos. 4,981,784 and 5,071,773, the disclosures of which are incorporated herein by reference.
In the co-transfection assay, a cloned cDNA for an IR (e.g., human RARα:, RARβ, RXRγ) under the control of a constitutive promoter (e.g., the SV 40 promoter) is introduced by transfection (a procedure to induce cells to take up foreign genes) into a background cell substantially devoid of endogenous IRs. This introduced gene directs the recipient cells to make the IR protein of interest. A second gene is also introduced (co-transfected) into the same cells in conjunction with the IR gene. […]
The co-transfection assay can detect small molecule agonists or antagonists of target IRs. […] This activity can be conveniently measured, e.g., by increasing luciferase production, which reflects compound-dependent, IR-mediated increases in reporter transcription. […]

Kd (RARα): 1 nM | Kd (RARβ): 0.4 nM | Kd (RARγ): 0.5 nM
Structure (SMILES): COc1c(C(C)(C)C)cc(/C(C)=C/C=C/C(C)=C/C(=O)O)cc1C(C)(C)C [A, reference compound]
type of activity on RAR (in words) (RARs): displays only activity as an RAR? agonist

Reference: patent publication US5998654A, “Retinoic acid receptor antagonist compounds and methods” (Ligand Pharmaceuticals Incorporated, priority 1997, dated 1999)
